Results: US11059800B2, “Dehydroleucodine derivatives and uses thereof” (Bioventures, LLC, priority 2013, dated 2021)

Experiments:
HL-60 = test: Cytotoxicity, annexin V/7-AAD viability by flow cytometry, HL-60; assay type: cell-based, human; conditions: HL-60, 48 hours, drug range tested 1.25-160 μM
Protocol: (§1) In order to assess the structure-activity relationship of DHL and its derivatives, DHL and its derivatives were evaluated against eight human leukemia cell lines. Cell lines were cultured in Iscove's Modified Dulbecco's Medium (IMDM) supplemented with 10%˜20% fetal bovine serum (FBS) according to culture conditions indicated by ATCC and 1% penicillin/streptomycin (Pen/Strep) at 37° C. and 5% CO2. The cells were seeded into 96-well plates and kept at a concentration of 0.5 million cells per mL. The samples were treated with DHL, Leucodine, DHL-Morpholine, DHL-Proline, DHL-Piperidine, and PTL at varying concentrations in triplicates. Cell viability was determined after incubating for 48 hours. The cells were stained with annexin V-fluorescein isothiocyanate or phycoeritrine (FITC/PE) and 7-aminoactinomycin (7-AAD) to detect phosphatidylserine exposition and cell permeability, respectively. At least 50,000 events were recorded per condition on either an LSR-II or LSR-Fortessa flow cytometer (BD Biosciences). Data analysis was conducted using FlowJo 9.6 software for Mac OS X (TreeStar). Cells that were negative for annexin V and 7-AAD were scored as viable.

Kasumi-1 = test: Cytotoxicity, annexin V/7-AAD viability by flow cytometry, Kasumi-1; assay type: cell-based, human; conditions: Kasumi-1, 48 hours, drug range tested 1.25-160 μM
Protocol: as §1

KG-1 = test: Cytotoxicity, annexin V/7-AAD viability by flow cytometry, KG-1; assay type: cell-based, human; conditions: KG-1, 48 hours, drug range tested 1.25-160 μM
Protocol: In order to assess the structure-activity relationship of DHL and its derivatives, DHL and its derivatives were evaluated against eight human leukemia cell lines. Cell lines were cultured in Iscove's Modified Dulbecco's Medium (IMDM) supplemented with 10%˜20% fetal bovine serum (FBS) according to culture conditions indicated by ATCC and 1% penicillin/streptomycin (Pen/Strep) at 37° C. and 5% CO2. […] Cell viability was determined after incubating for 48 hours.

MOLM-13 = test: Cytotoxicity, annexin V/7-AAD viability by flow cytometry, MOLM-13; assay type: cell-based, human; conditions: MOLM-13, 48 hours, drug range tested 1.25-160 μM
Protocol: as §1

MV4-11 = test: Cytotoxicity, annexin V/7-AAD viability by flow cytometry, MV4-11; assay type: cell-based, human; conditions: MV4-11, 48 hours, drug range tested 1.25-160 μM
Protocol: as §1

THP-1 = test: Cytotoxicity, annexin V/7-AAD viability by flow cytometry, THP-1; assay type: cell-based, human; conditions: THP-1, 48 hours, drug range tested 1.25-160 μM
Protocol: as §1

TUR = test: Cytotoxicity, annexin V/7-AAD viability by flow cytometry, TUR; assay type: cell-based, human; conditions: 48 hours, drug range tested 1.25-160 μM
Protocol: as §1

U-937 = test: Cytotoxicity, annexin V/7-AAD viability by flow cytometry, U-937; assay type: cell-based, human; conditions: U-937, 48 hours, drug range tested 1.25-160 μM
Protocol: as §1

HMOX1 (Heme oxygenase 1) = test: Quantitative PCR of HMOX1 in MOLM-13 or MV-411 cells; assay type: cell-based; conditions: 20 μM, 6 hours, MOLM-13 and MV-411 cells
Protocol: (§2) (FIG. 8A) Graphical representation of the fold changes of HMOX-1 in MOLM-13 cells. Cells were seeded at 0.5 million cells per milliliter and subject to 20 μM of DHL, leucodine, DHL-proline, DHL-piperidine, DHL-morpholine, or parthenolide for 6 hours. RNA was then extracted and quantitative PCR was performed. Experiments were performed in triplicates. Lines represent mean for each specimen, with error bars representing the SD. Fold change was calculated by the delta-delta Ct method. […] (FIG. 8D) Immunoblot for MOLM-13 cells after 6 hours of treatment with either DHL or PTL with 10 or 20 μM. Blot was probed for phospho-p65 and p65 antibodies. Total p65 is shown as the loading control.
(§3) (FIG. 9A) Graphical representation of the fold changes of HMOX-1 in MV-411 cells. Cells were seeded at 0.5 million cells per milliliter and subject to 20 μM of DHL, leucodine, DHL-proline, DHL-piperidine, DHL-morpholine, or parthenolide for 6 hours. RNA was then extracted and quantitative PCR was performed. Experiments were performed in triplicates. Lines represent mean for each specimen, with error bars representing the SD. Fold change was calculated by the delta-delta Ct method. (FIG. 9B) Graphical representation of the fold changes of HSPA1A in MV-411 cells, with the same experimental setup and analysis as FIG. […].
(§4) To compare these intracellular effects of DHL and its derivatives, quantitative PCR was performed (FIG. 8 and FIG. 9). MOLM-13 or MV-411 cells were seeded at 0.5 million cells per milliliter. Cells were treated for 6 hours with 20 μM of DHL, Leucodine, DHL-Morpholine, DHL-Proline, DHL-Piperidine or PTL, and then collected. Total RNA was extracted using the Qiashredder and Qiagen Rneasy Mini kits. […] Quantitative PCR was performed using probes for HMOX-1 (Hs01110251_m1), HSPA1A (Hs00359163_s1), and NFKB1 (Hs00765730_m1). […] Single-plex real-time PCR was performed in triplicates in a StepOne plus RealTime PCR system and analyzed with the StepOne Software. Fold change was calculated using the 2-DDCT method described by Livak and Schmittgen.

HSPA1A = test: Quantitative PCR of HSPA1A in MOLM-13 or MV-411 cells; assay type: cell-based; conditions: 20 μM, 6 hours, MOLM-13 and MV-411 cells
Protocol: as §2, §3, §4

[1] = system: eight human leukemia cell lines
Protocol: Cell lines were cultured in Iscove's Modified Dulbecco's Medium (IMDM) supplemented with 10%˜20% fetal bovine serum (FBS) according to culture conditions indicated by ATCC and 1% penicillin/streptomycin (Pen/Strep) at 37° C. and 5% CO2. The cells were seeded into 96-well plates and kept at a concentration of 0.5 million cells per mL. […] Cell viability was determined after incubating for 48 hours. The cells were stained with annexin V-fluorescein isothiocyanate or phycoeritrine (FITC/PE) and 7-aminoactinomycin (7-AAD) to detect phosphatidylserine exposition and cell permeability, respectively. At least 50,000 events were recorded per condition on either an LSR-II or LSR-Fortessa flow cytometer (BD Biosciences). Data analysis was conducted using FlowJo 9.6 software for Mac OS X (TreeStar). Cells that were negative for annexin V and 7-AAD were scored as viable.

NF-κB = test: Quantitative PCR of NF-κB transcript in MOLM-13 and MV-411 cells; assay type: cell-based; conditions: 20 μM, 6 hours
Protocol: as §2
as §4, with “collected.” for “collected. Total RNA was extracted using the Qiashredder and Qiagen Rneasy Mini kits.”

Row | SMILES | LD50 (HL-60) [µM] | LD50 (Kasumi-1) [µM] | LD50 (KG-1) [µM] | LD50 (MOLM-13) [µM] | LD50 (MV4-11) [µM] | LD50 (THP-1) [µM] | LD50 (TUR) [µM] | LD50 (U-937) [µM] | HMOX1 expression, fold change (HMOX1 (Heme oxygenase 1)) | HSPA1A expression, fold change (HSPA1A) | anti-leukemic activity / in vitro cytotoxicity [1] | NF-κB transcript levels (NF-κB)
1 | CC1=CC(=O)C2=C(C)CCC3C(CN4CCOCC4)C(=O)OC3C12 (stereo not drawn) [DHL-Morpholine] | 166 | >160 | 129 | >160 | 21.1 | 54.4 | >160 | 74.7 |  |  |  | 
2 | CC1=CC(=O)C2=C(C)CCC3C(CN4CCCCC4)C(=O)OC3C12 (stereo not drawn) [DHL-Piperidine] | 96.5 | >160 | 182 | 52.3 | 66.9 | 59.3 | >160 | >160 |  |  |  | 
3 | CC1=CC(=O)C2=C(C)CCC3C(CN4CCCC4C(=O)O)C(=O)OC3C12 (stereo not drawn) [DHL-Proline] | 50.2 | 28.1 | 97.7 | 20.6 | 23.3 | 26.7 | 35.9 | 33.0 | upregulated HMOX1 and HSPA1A the most | upregulated HMOX1 and HSPA1A the most | most potent derivative | 
4 | CC1=CC(=O)C2=C(C)CC[C@@H]3[C@H](OC(=O)[C@H]3C)[C@@H]12 [Leucodine, leucodine] | >160 | >160 | >160 | >160 | >160 | 121 | 105 | >160 | upregulated | upregulated | not found to be active | slightly downregulated
